US20230123334A1, “AMINO LIPID COMPOUND, PREPARATION METHOD THEREFOR, AND APPLICATION THEREOF” (SHENZHEN SHENXIN BIOTECHNOLOGY CO., LTD., priority 2020, published 2023)

How the values were obtained:
[1] = system: HEK293 cells; experiment: Preliminary screening as mRNA vectors, EGFP mRNA transfection of HEK293 cells; assay type: cell-based; conditions: HEK293 cells, 96-well plates, EGFP mRNA 50 ng per well; percentage of GFP fluorescent cells relative to total number of cells (Hoechst)
In short: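 HEK293 cells in DMEM plus 10% FBS transfected in 96-well format with 50 ng EGFP mRNA per well; Lipofectamine2000 served as positive control. Read-out is the percentage of GFP-fluorescent cells among total cells, counted by Hoechst nuclear stain.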

[2] = system: HEK293 cells; experiment: Preliminary screening as DNA vectors, GFP transfection of HEK293 cells; assay type: cell-based; conditions: HEK293 cells; lipid/DOPE liposome with 75 ng plasmid DNA (psin-EGFP-IRES-Puro); number of cells expressing GFP divided by total number of nuclei (Hoechst)
In short: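 HEK293 cells in DMEM/10% FBS transfected with 75 ng EGFP plasmid per well complexed with amino lipid/DOPE liposomes in pH 5.6 sodium acetate. Hoechst nuclear stain added 20-24 h post-transfection, then cells cultured another 20-24 h. Confocal imaging gives GFP-positive cells as % of total nuclei.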

Compound | Absolute mRNA transfection efficiency in HEK293 cells [1] | Absolute DNA transfection efficiency in HEK293 cells [2]
CCCCCCCCCCSc1nc(NCCN(CC)CC)nc(SCCCCCCCCC)n1 [Compound S9S10D7] | 2.8% | 8.3%
CCCCCCCCCNc1nc(NCCCCCCCC)nc(NCCN2CCN(C)CC2)n1 [Compound N8N9D5] | 0.0% | 0.0%
CCCCCCCCCCCCNc1nc(NCCCCCCC)nc(NCCCN(C)C)n1 [Compound N7N12D6] | 0.2% | 0.4%
CCCCCCCCCCCCCCCCCCNc1nc(NCCCCCCC)nc(NCCN(CC)CC)n1 [Compound N7N18D7] | 0.0% | 0.0%
CCCCCCCCCCCCCCCCSc1nc(NCC2CCN(C)CC2)nc(SCCCCCCCCCCCCCCCC)n1 [Compound S16S16D10] | 2.7% | 0.1%
CCCCCCCCNc1nc(NCCCCCC)nc(NCCCN2CCOCC2)n1 [Compound N6N8D8] | 0.0% | 0.0%
CCCCCCCCCCCCCNc1nc(NCCCCCCCCCCC)nc(NCCCN(C)C)n1 [Compound N11N13D6] | 0.2% | 0.8%
CCCCCCCCCCCCCCCCCCNc1nc(NCCCCCCCCC)nc(NCCN(CC)CC)n1 [Compound N9N18D7] | 0.6% | 3.0%
CCCCCCCCCCCCCCCCNc1nc(NCCCN(C)C)nc(N(CCCCCCCCCCCC)CCCCCCCCCCCC)n1 [N16^2N12D6] | 0.0% | 0.5%
CCCCCCCCCCCCCCCCNc1nc(NCCCCCC)nc(NCC2CCN(C)CC2)n1 [Compound N6N16D10] | 0.8% | 0.7%
CCCCCCCCCCCCCCCNc1nc(NCCCCCCCCC)nc(NCCCN2CCN(C)CC2)n1 [Compound N9N15D9] | 1.1% | 0.9%
CCCCCCCCCCCCCNc1nc(NCCCCCCCCCCC)nc(NCCCN2CCN(C)CC2)n1 [Compound N11N13D9] | 7.1% | 0.0%
CCCCCCCCCCCCCNc1nc(NCCCCCCCC)nc(NCCCN2CCN(C)CC2)n1 [Compound N8N13D9] | 0.0% | 1.0%
CCCCCCCCCCCCN(CCCCCCCCCCCC)c1nc(NCCCCCC)nc(NCCN(CC)CC)n1 [N6^2N12D7] | 0.3% | 0.1%
CCCCCCCCCCCCCCCCNc1nc(NCCCCCCCCCCCCCCC)nc(NCC2CCN(C)CC2)n1 [Compound N15N16D10] | 0.0% | 1.5%
CCCCCCCCCCCCNc1nc(NCCCCCCCCCCCC)nc(NCCN2CCOCC2)n1 [Compound N12N12D2] | 1.0% | 0.2%
CCCCCCCCCCCNc1nc(NCCCCCCCCCCC)nc(NCC2CCN(C)CC2)n1 [Compound N11N11D10] | 1.2% | 0.5%
CCCCCCCCCCCCCNc1nc(NCCCCCCCCCCC)nc(NCCN2CCCC2)n1 [Compound N11N13D3] | 3.6% | 0.0%
CCCCCCCCCCCCCCSc1nc(NCCN2CCCCC2)nc(SCCCCCCCCCCCCCC)n1 [Compound S14S14D4] | 0.8% | 0.7%
CCCCCCCCCCCCCNc1nc(NCCCCCCCCCCCCC)nc(NCCN(C)C)n1 [Compound N13N13D1] | 0.4% | 1.5%
CCCCCCCCCCCCCCCCCCSc1nc(NCCN2CCCCC2)nc(SCCCCCCCCCCC)n1 [Compound S11S18D4] | 1.4% | 3.3%
CCCCCCCCCNc1nc(NCCCCCCC)nc(NCCN2CCOCC2)n1 [Compound N7N9D2] | 0.0% | 0.0%
CCCCCCCCCCCCCCCCCCSc1nc(NCC2CCN(C)CC2)nc(SCCCCCCCCCCC)n1 [Compound S11S18D10] | 92.0% | 20.9%
CCCCCCCCCCCCCCCCNc1nc(NCCCCCCCCCCCCCCCC)nc(NCCN2CCN(C)CC2)n1 [Compound N16N16D5] | 0.0% | 0.0%

Compound | Absolute mRNA transfection efficiency in HEK293 cells [1] | Absolute DNA transfection efficiency in HEK293 cells [2]
CCCCCCCCCCCCCCCCSc1nc(NCCCN2CCN(C)CC2)nc(SCCCCCCCCCCCCCCCC)n1 [Compound S16S16D9] | 0.2% | 0.5%
CCCCCCCCCCCCCCCCSc1nc(NCCCN2CCOCC2)nc(SCCCCCCCCCC)n1 [Compound S10S16D8] | 4.0% | 15.7%
CCCCCCCCCCCCCNc1nc(NCCCCCCC)nc(NCCCN(C)C)n1 [Compound N7N13D6] | 2.3% | 1.6%
CCCCCCCCCCCCCCCCCCNc1nc(NCCCCCCCCCCCCC)nc(NCCN2CCOCC2)n1 [Compound N13N18D2] | 0.0% | 0.2%
CCCCCCCCCCCCNc1nc(NCCCCCCCCCCCC)nc(NCCN2CCCCC2)n1 [Compound N12N12D4] | 2.2% | 0.4%
CCCCCCCCCCCCCCCCCCNc1nc(NCCCCCCCCCCCCC)nc(NCCCN2CCN(C)CC2)n1 [Compound N13N18D9] | 0.8% | 1.1%
CCCCCCCCCCCCN(CCCCCCCCCCCC)c1nc(NCCCCCCCCC)nc(NCCN2CCOCC2)n1 [N9^2N12D2] | 1.3% | 0.0%
CCCCCCCCCCCSc1nc(NCCN2CCCCC2)nc(SCCCCCCCCCC)n1 [Compound S10S11D4] | 0.0% | 16.7%
CCCCCCCCCNc1nc(NCCCCCCC)nc(NCCN2CCCCC2)n1 [Compound N7N9D4] | 0.0% | 0.0%
CCCCCCCCCCCCCCCCCCNc1nc(NCCCCCCCCCCCCCCCC)nc(NCCN(C)C)n1 [Compound N16N18D1] | 0.0% | 1.2%
CCCCCCCCCCCCCCCCSc1nc(NCCN2CCOCC2)nc(SCCCCCCCCCCCCCCCC)n1 [Compound S16S16D2] | 0.2% | 1.1%
CCCCCCCCCCCCCCCCCCNc1nc(NCCCCCCC)nc(NCCCN2CCOCC2)n1 [Compound N7N18D8] | 0.2% | 0.2%
CCCCCCCCCCCCNc1nc(NCCCCCCC)nc(NCCN2CCN(C)CC2)n1 [Compound N7N12D5] | 0.0% | 0.3%
CCCCCCCCCCCCCCCNc1nc(NCCCCCCCCCCCCCCC)nc(NCCN2CCCC2)n1 [Compound N15N15D3] | 3.8% | 1.8%
CCCCCCCCCCCCCCCCNc1nc(NCCCCCCCCC)nc(NCCN2CCCC2)n1 [Compound N9N16D3] | 4.3% | 2.2%
CCCCCCCCCCCCCCCSc1nc(NCCCN2CCN(C)CC2)nc(SCCCCCCCC)n1 [Compound S8S15D9] | 22.0% | 13.9%
CCCCCCCCCCCCCCCCCCNc1nc(NCCCCCCCCCCCCC)nc(NCCN(C)C)n1 [Compound N13N18D1] | 13.8% | 2.7%
CCCCCCCCCCCCCCCCNc1nc(NCCCN2CCOCC2)nc(N(CCCCCCCCCCCC)CCCCCCCCCCCC)n1 [N16^2N12D8] | 4.3% | 0.4%
CCCCCCCCCCCCCCCNc1nc(NCCCCCCCCCCC)nc(NCC2CCN(C)CC2)n1 [Compound N11N15D10] | 1.6% | 0.4%
CCCCCCCCCCCCCCCNc1nc(NCCCCCCCC)nc(NCCN(C)C)n1 [Compound N8N15D1] | 0.7% | 1.5%
CCCCCCCCCCCCCCCSc1nc(NCCN(C)C)nc(SCCCCCCCCCCCCCC)n1 [Compound S14S15D1] | 0.0% | 0.1%
CCCCCCCCCCCCN(CCCCCCCCCCCC)c1nc(NCCCCCCCC)nc(NCCN2CCCC2)n1 [N8^2N12D3] | 0.9% | 0.1%
CCCCCCCCCCCCCCCNc1nc(NCCN(C)C)nc(N(CCCCCCCCCCCC)CCCCCCCCCCCC)n1 [N15^2N12D1] | 0.0% | 0.9%
